The values below come from US20030130308A1, “Drugs for spinal anesthesia” (priority 2001, published 2003).

Structures are written as SMILES. “Also recorded” adds a separate entry of the source. Where a name gives a salt, the structure may show the parent alone. Marks after values point to notes of the source that are not given here. A value given as a limit tells only on which side of the number the result lay.

The test system of assay [1] is rats. The experiment in a line: Ambulation score after intrathecal injection. As to conditions: rat; for Ambulation Score: median (range). In kind it is in vivo. How it is done:
(§1) Rats were tested before 15 minutes through 240 minutes after intrathecal injection of 5 nmoles (in 10 μl) of 6-[2-(1(2)H-tetrazole-5-yl)ethyl]decahydroisoquinolone-3-carboxylic acid. Sensory function was tested at the hindpaw using withdrawal response to pinprick and withdrawal to pinch with a sharp forceps. Motor performance (ambulation, the placing reflex and Rotarod time), blood pressure and heart rate was also evaluated. Some tests were repeated the next day. Responses after 6-[2-(1(2)H-tetrazole-5-yl)ethyl]decahydroisoquinolone-3-carboxylic acid were compared to injection of 40 μl of bupivacaine, 0.75%. Pinprick responses at the forepaw, chest, abdomen, hindleg and hindpaw were also examined after intrathecal 6-[2-(1(2)H-tetrazole-5-yl)ethyl]decahydroisoquinolone-3-carboxylic acid.
(§2) Rats were anesthetized with halothane. The lumbar region was shaved, prepared with povidone-iodine, made kyphotic and incised 2 to 3 cm longitudinally in the midline at the level of the iliac crests. The space between the 5th and 6th lumbar vertebrae was punctured with 23G hypodermic needle and a 32G PU catheter (10 cm length, OD 0.0107 inches and ID 0.005 inches) reinforced with a Teflon coated stainless steel stylet (0.003 inches) was advanced through the needle cranially. The needle and the stylet were removed and the catheter withdrawn so that 6.5-7 cm extended outside of the lumbar masculature. The catheter was fixed to the fascia, sutured, inserted into an 8 cm length of PE-10 tubing and secured with glue covered with epoxy. The catheter was tunneled under the skin to the cervical region, flushed with saline and sealed with a cautery pen. The dead space of the catheter was 4.5 to 5 μl. The skin was closed and the rat was allowed to recover from anesthesia for 2-3 days.
Rats were trained over a two-day period. Training began by placing the rat on a Rotarod (Stoelting, Wood Dale, Ill.) that was fixed for three minutes. Then, three series of trials separated by 2-3 hours were performed. During each trial, the rat was placed on the Rotarod accelerating for the first 20 s then at a constant rate of approximately 5 rpm, until a 180 s cut off time. If the rat fell at any time during the initial trial, the trial was repeated. Each rat was allowed three attempts per trial. On the second day, the same procedure was repeated, though acceleration was sustained for 120 s to approximately 12 rpm, with a 150 second cut off time. On day 3, the test day, rats are again placed on the Rotarod and accelerated for 120 seconds to 12 rpm with the cutoff time of 150 seconds. Each rat was permitted 4 attempts at 15 minute intervals. Those successful in 2 of the 4 attempts continued in the protocol, and the average of the 4 attempts was considered the baseline (pre). After a two-hour period, the test drug was administered and rats were examined once on the Rotarod at 30, 60, 90, 120, 180, and 240 minutes. […] Then the placing reflex was tested. Rats were placed on a table and the dorsum of either hindpaw was drawn across the edge of the table; this elicits a lifting of the paw onto the surface of the table (2=normal; 1=delay of 1-2 sec.; 0=more than 2 sec.). This test was performed 3 times for each hindlimb after each ambulation test. The sum of the three trials on both paws were recorded ([…]).
(§3) The dose and volume of drugs injected intrathecally were determined from the dose required to produce hindlimb sensory and motor loss in preliminary experiments. Bupivacaine HCl (0.75% in 8.25% dextrose for spinal injection) was purchased from Abbott Laboratories (Chicago, Ill.). The intrathecal injection volume was 40 μl. The compound was dissolved in 10% dextrose and water. The injection volume was 1 ul. All intrathecal drug injections were followed by a flush of 10 μl preservative-free saline.

Assay [2] relates to rats. The experiment in a line: Withdrawal response to pinch with forceps at the hindpaw after intrathecal injection. In kind it is in vivo. The settings on record: rat. How it is done:
as §1, §2
First, the withdrawal response to pinprick was tested on each hindpaw. A 5 mm long tip of a safety pin attached to a von Frey filament (520 mN) was applied once to the plantar aspect of each hindpaw. Either a withdrawal response or a reaction occurred (1=positive response) or no withdrawal (0=no response). The sum of the scores (0, 1 or 2) for each rat was recorded. If no response or reaction was elicited by pinprick, a serrated dissecting forceps was used to pinch the skin of the plantar region for 2-3 sec. Again, withdrawal or reaction was considered a positive response (score=1) and the absence of both a negative test (score=0). […] Because the response to pinch was quite vigorous and rats were subjected to repeated tests in a single day, only rats unresponsive to pinprick were tested for pinch. If pinprick evoked a response, pinch was designated as positive also. The sum of the scores after pinch (0, 1 or 2) was recorded.
as §3

The test system of assay [3] is rats. The experiment in a line: Withdrawal response to pinprick after infiltration into the left hind paw. It is filed as in vivo. The settings on record: rat. How it is done: Withdrawal response to pinprick were also tested before and after infiltration of (50 nmoles in 100 μl) of 6-[2-(1(2)H-tetrazole-5-yl)ethyl]decahydroisoquinolone-3-carboxylic acid into the left hind paw (n=5). Responses were recorded before injection of 6-[2-(1(2)H-tetrazole-5-yl)ethyl]decahydroisoquinolone-3-carboxylic acid and at 15, 30 and 60 minutes after injection. This test was not blinded.

For assay [4] the following is noted: local infiltration of the drug in the incision; previously reported by this inventor; cited from earlier work.
For assay [5], the system named is rats. Description: Segmental pinprick testing at hindpaw, hindleg, abdomen, chest and forepaw after intrathecal injection. The settings on record: rat. It is filed as in vivo. Here is the method: as §1
In a separate group of rats (n=5), the response to pinprick was tested once on the left hindpaw, the left hindleg, the lower abdomen, the chest and the left forepaw in rats injected with intrathecal 6-[2-(1(2)H-tetrazole-5-yl)ethyl]decahydroisoquinolone-3-carboxylic acid. Withdrawal, muscle contraction, or attempted escape reaction to pinprick was considered a positive test whereas their absence was considered a negative response. This test was not blinded.

Where [6] appears, read: bupivacaine 0.75% 40 μl intrathecal.
The mark [7] stands for this setting: 5 nmoles intrathecal, from 15 minutes.

For `CCCCN1CCCCC1C(=O)Nc1c(C)cccc1C` (stereo not shown) [Bupivacaine, Bupivacaine HCl], the “Ambulation Score” value in the assay with rats [1] (Bupivacaine 0.75% 40 μl IT, n=8, 15 min) was 0 (0-0)*; with rats [1] (Bupivacaine 0.75% 40 μl IT, n=8, 30 min), 1 (0-2)*; with rats [1] (Bupivacaine 0.75% 40 μl IT, n=8, 60 min), 2 (1-2); with rats [1] (Bupivacaine 0.75% 40 μl IT, n=8, 90 min) it was 2 (1-2); in the assay with rats [1] (Bupivacaine 0.75% 40 μl IT, n=8, 120 min) it was 2 (2-2); in the assay on rats [1] (Bupivacaine 0.75% 40 μl IT, n=8, 180 min), 2 (2-2). In addition, the “Ambulation Score” value in the assay with rats [1] (Bupivacaine 0.75% 40 μl IT, n=8, 240 min) is given as 2 (2-2); in the assay with rats [1] (Bupivacaine 0.75% 40 μl IT, n=8, 24 hrs), 2 (2-2); in the assay with rats [1] (Bupivacaine 0.75% 40 μl IT, n=8, Pre (before drug injection)), 2 (2-2). The “ambulation decreased for (P<0.05 vs Pre)” value with rats [1] (setting [6]) was found to be 30 min. Moreover, the “time of full recovery of response to pinch” value in the assay with rats [2] (setting [6]) was found to be 30 min. Moreover, the “response to pinch vs Pre” value with rats [2] (bupivacaine 0.75% 40 μl intrathecal, 15 minutes after injection) is reported as “reduced”.

On to `O=C(O)C1CC2CC(CCc3nnn[nH]3)CCC2CN1` (stereo not shown) [LY293558, 6-[2-(1(2)H-tetrazole-5-yl)ethyl]decahydroisoquinolone-3-carboxylic acid], for which, in the assay on rats [3] (50 nmoles in 100 μl infiltrated into the hind paw, n=5), the “change in withdrawal response to pinprick from baseline” value is reported as “no change; also recorded: did not affect”. Moreover, the “rats withdrawing to pinprick” value in the assay on rats [3] (50 nmoles in 100 μl into the hind paw, n=5, at 15, 30 and 60 minutes) was “All five rats withdrew”. For the same compound, in the assay with rats [1] (5 nmoles intrathecal), the “time by which all rats had recovered ambulation” value was ≤ 4 h. In the assay with rats [1] (setting [7]), the “ambulation significantly impaired through (P<0.05 vs Pre)” value was 90 min. The “Ambulation Score” value in the assay on rats [1] (LY293558 5 nmoles IT, n=8, 15 min) is 0 (0-0)*; in the assay with rats [1] (LY293558 5 nmoles IT, n=8, 240 min) it was 2 (2-2); in the assay with rats [1] (LY293558 5 nmoles IT, n=8, 24 hrs), 2 (2-2); in the assay with rats [1] (LY293558 5 nmoles IT, n=8, Pre (before drug injection)), 2 (2-2). In the assay with rats [2] (5 nmoles intrathecal vs bupivacaine), the “greater inhibition of pinch than bupivacaine (P<0.05) through” value was determined as 4 h. The “all rats failed to respond to pinch through (P<0.05 vs Pre)” value with rats [2] (setting [7]) is 90 min. Further, the “recovery of pinch response the next day” value in the assay on rats [2] (5 nmoles intrathecal, next day) is “recovered fully”. In addition, the “effect on pain after incision” value in assay [4] was “no effect”. The “segmental blockade of the response to pinprick” value in the assay with rats [5] (5 nmoles intrathecal) is on record as “present”. In the assay on rats [5] (intrathecal, n=5, not blinded), the “evidence of sensory block of the forelimb” value is listed as “in only one test at 15 minutes”. In addition, in the assay with rats [5] (intrathecal, n=5, not blinded), the “sensation to pinprick blocked below the chest in all rats through” value amounted to 90 min. Further, the “sensation to pinprick blocked in the hindlimb through” value with rats [5] (intrathecal, n=5, not blinded) turned out to be 120 min.
